Measurements: paper PMC10172927, “Maturation of the malarial phosphatidylserine decarboxylase is mediated by high affinity binding to anionic phospholipids” (The Journal of Biological Chemistry, 2023)

Molecular target: T1, PkPSD proenzyme; MBP-His6-Δ34PkPSD(S308A) (Plasmodium knowlesi, UniProt B3L2V1, S308A)
T1 construct: gene PKH_072580
Test: biochemical

T1 sequence (B3L2V1 35-354 S308A): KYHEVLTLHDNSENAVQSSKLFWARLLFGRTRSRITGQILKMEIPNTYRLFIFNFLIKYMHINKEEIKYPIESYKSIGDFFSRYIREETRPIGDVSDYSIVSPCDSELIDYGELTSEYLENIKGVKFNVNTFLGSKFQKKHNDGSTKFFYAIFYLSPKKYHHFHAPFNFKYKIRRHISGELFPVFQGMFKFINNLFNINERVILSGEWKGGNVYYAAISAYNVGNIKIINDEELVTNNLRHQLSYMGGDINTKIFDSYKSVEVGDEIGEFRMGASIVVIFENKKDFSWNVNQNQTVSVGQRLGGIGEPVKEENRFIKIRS

| Structure (SMILES) | Kd [nM] |
| --- | --- |
| CCCCCCCC/C=C\CCCCCCCC(=O)OC[C@H](COP(=O)(O)OC[C@H](N)C(=O)O)OC(=O)CCCCCCC/C=C\CCCCCCCC [DOPS] | 80.4 |
| CCCCCCCC/C=C\CCCCCCCC(=O)OC[C@H](COP(=O)(O)OCC(O)CO)OC(=O)CCCCCCC/C=C\CCCCCCCC (some centres unmarked) [DOPG] | 66.4 |
